Laboratory results: ChEMBL document CHEMBL1136897, “Predictive models of Cannabinoid-1 receptor antagonists derived from diverse classes” (Bioorg Med Chem Lett, 2009)

Each compound was assayed against Cannabinoid receptor 1 (Homo sapiens, UniProt P21554).
Format: functional

Sequence of Cannabinoid receptor 1 (P21554 whole entry): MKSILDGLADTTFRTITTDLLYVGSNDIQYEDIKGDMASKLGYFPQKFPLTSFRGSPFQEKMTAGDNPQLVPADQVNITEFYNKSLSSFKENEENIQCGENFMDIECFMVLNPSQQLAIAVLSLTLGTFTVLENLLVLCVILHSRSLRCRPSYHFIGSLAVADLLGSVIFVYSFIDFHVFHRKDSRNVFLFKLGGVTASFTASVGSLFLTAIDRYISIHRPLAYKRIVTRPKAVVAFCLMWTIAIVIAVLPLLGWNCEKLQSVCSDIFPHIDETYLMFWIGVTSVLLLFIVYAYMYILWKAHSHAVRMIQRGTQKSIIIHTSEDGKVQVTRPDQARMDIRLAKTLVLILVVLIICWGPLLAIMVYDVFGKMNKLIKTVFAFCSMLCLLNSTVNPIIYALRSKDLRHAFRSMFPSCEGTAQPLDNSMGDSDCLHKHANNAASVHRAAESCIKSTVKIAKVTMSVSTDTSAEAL

SMILES	IC50 [nM]
CC(=O)Nc1cc(=O)n(C)c2nc(-c3ccc(Cl)cc3Cl)c(-c3ccc(Cl)cc3)cc12	112
CC(C)NC(=O)N1CCN(C(c2ccc(Cl)cc2)c2ccccc2C(F)(F)F)CC1 (stereo not drawn)	6610
CC(C)NC(=O)N1CCN(C(c2ccc(Br)cc2)c2ccccc2Cl)CC1 (stereo not drawn)	776
O=C(NCC1CCC1)N1CCN(C(c2ccc(Cl)cc2)c2ccc(Cl)cc2)CC1	3470
CC(=O)Nc1c(C#N)c(=O)n(C)c2nc(-c3ccc(Cl)cc3Cl)c(-c3ccc(Cl)cc3)cc12	35.5
Cc1ccccc1C(c1ccc(Cl)cc1)N1CCN(C(=O)NC(C)C)CC1 (stereo not drawn)	2190

More lines, now with the values ahead:

IC50 [nM]	SMILES
398	CC(C)NC(=O)N1CCN(C(c2ccc(Cl)cc2)c2ccccc2Cl)CC1 (stereo not drawn)
2040	CC(NS(C)(=O)=O)C(Cc1ccc(Cl)cc1)c1cccc(C#N)c1 (stereo not drawn)
1.32	CC(NC(=O)C(C)(C)Oc1ccc(Cl)cn1)C(Cc1ccc(Cl)cc1)c1ccccc1 (stereo not drawn)
1.12	CC(NC(=O)C(C)(C)Oc1cc(F)cc(F)c1)C(Cc1ccc(Cl)cc1)c1ccccc1 (stereo not drawn)
1.51	CC(NC(=O)C(C)(C)Oc1cccc(Cl)c1)C(Cc1ccc(Cl)cc1)c1ccccc1 (stereo not drawn)
1700	CC(NS(=O)(=O)C(C)(C)C)C(Cc1ccc(Cl)cc1)c1cccc(C#N)c1 (stereo not drawn)
20.9	CC(NS(=O)(=O)Cc1ccccc1)C(Cc1ccc(Cl)cc1)c1cccc(C#N)c1 (stereo not drawn)
